Results: PubChem BioAssay AID1918940 (Molecular Pharmacology Branch, DTP, NCI, 2023)
Several values for one entry are separate records, joined by “and”; a condition that tells them apart may be missing. Identical values can stand only once.

Test system: NCI-H211 complex spheroid viability
Experiment: Anticancer human tumor NCI-H211 cell line growth inhibition [LSD1];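 further: luminescent viability read after seven days of drug exposure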;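 on viability, T/C: 100% = DMSO vehicle control viability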
Details: for viability, T/C: stronger effect = lower value
Outline: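 Complex spheroids of tumor cells with HUVEC and human MSCs, exposed to iadademstat combined with other agents. Each agent tested in half-log steps from near clinical Cmax (else 10 microM top), DMSO ≤0.25%.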

[1] = curve of first compound, second compound 0.1 µM
[2] = curve of first compound, second compound 0.316 µM
[3] = curve of first compound, second compound 1 µM
[4] = curve of first compound, second compound 3.16 µM
[5] = curve of first compound, second compound 10 µM
[6] = second compound 0.1 µM, first compound 0.00949 µM
[7] = second compound 0.1 µM, first compound 0.03 µM
[8] = second compound 0.1 µM, first compound 0.0949 µM
[9] = second compound 0.1 µM, first compound 0.3 µM
[10] = second compound 0.1 µM, first compound 0.949 µM
[11] = second compound 0.1 µM, first compound 3 µM
[12] = second compound 0.316 µM, first compound 0.00949 µM
[13] = second compound 0.316 µM, first compound 0.03 µM
[14] = second compound 0.316 µM, first compound 0.0949 µM
[15] = second compound 0.316 µM, first compound 0.3 µM
[16] = second compound 0.316 µM, first compound 0.949 µM
[17] = second compound 0.316 µM, first compound 3 µM
[18] = second compound 1 µM, first compound 0.00949 µM
[19] = second compound 1 µM, first compound 0.03 µM
[20] = second compound 1 µM, first compound 0.0949 µM
[21] = second compound 1 µM, first compound 0.3 µM
[22] = second compound 1 µM, first compound 0.949 µM
[23] = second compound 1 µM, first compound 3 µM
[24] = second compound 3.16 µM, first compound 0.00949 µM
[25] = second compound 3.16 µM, first compound 0.03 µM
[26] = second compound 3.16 µM, first compound 0.0949 µM
[27] = second compound 3.16 µM, first compound 0.3 µM
[28] = second compound 3.16 µM, first compound 0.949 µM
[29] = second compound 3.16 µM, first compound 3 µM
[30] = second compound 10 µM, first compound 0.00949 µM
[31] = second compound 10 µM, first compound 0.03 µM
[32] = second compound 10 µM, first compound 0.0949 µM
[33] = second compound 10 µM, first compound 0.3 µM
[34] = second compound 10 µM, first compound 0.949 µM
[35] = second compound 10 µM, first compound 3 µM

`NS(=O)(=O)OCC1CC(n2ccc3c(NC4CCc5ccccc54)ncnc32)CC1O` (configuration not stated) + NC1CC1c1ccc(-c2cccc(O)c2)cc1 gave an IC50 [1] of under 9.49 nM, an IC50 [2] of under 9.49 nM and an IC50 [3] of under 9.49 nM. For the same compound, the IC50 [4] was under 9.49 nM, the IC50 [5] was under 9.49 nM and the viability, T/C [6] was 21.2%. For the same compound, the viability, T/C [7] was 9.36%, the viability, T/C [8] was 4.3% and the viability, T/C [9] was 1.71%. For the same compound, the viability, T/C [10] was 1.1%, the viability, T/C [11] was 0.94% and the viability, T/C [12] was 20.3%. The viability, T/C [13] was 13.6%, the viability, T/C [14] was 2.93% and the viability, T/C [15] was 1.2%. The viability, T/C [16] was 1.09%, the viability, T/C [17] was 0.81% and the viability, T/C [18] was 20.4%. For the same compound, the viability, T/C [19] was 10.4%, the viability, T/C [20] was 3.57% and the viability, T/C [21] was 1.64%. It also gave a viability, T/C [22] of 1.11%, a viability, T/C [23] of 0.79% and a viability, T/C [24] of 26.8%. For the same compound, the viability, T/C [25] was 13.2%, the viability, T/C [26] was 5.17% and the viability, T/C [27] was 2.04%. For the same compound, the viability, T/C [28] was 0.97%, the viability, T/C [29] was 0.81% and the viability, T/C [30] was 27.4%. For the same compound, the viability, T/C [31] was 12%, the viability, T/C [32] was 5.24% and the viability, T/C [33] was 1.75%. It also gave a viability, T/C [34] of 0.61% and a viability, T/C [35] of 0.57%.
Work on `O=C(c1cc(Cc2n[nH]c(=O)c3ccccc23)ccc1F)N1CCN(C(=O)C2CC2)CC1` + NC1CCC(NC2CC2c2ccccc2)CC1 yielded an IC50 [1] of under 31.6 nM, an IC50 [2] of under 31.6 nM and an IC50 [3] of under 31.6 nM. It also gave an IC50 [4] of under 31.6 nM, an IC50 [5] of under 31.6 nM and a viability, T/C (second compound 0.1 µM, first compound 0.0316 µM) of 41.8%. For the same compound, the viability, T/C (second compound 0.1 µM, first compound 0.1 µM) was 26.4%, the viability, T/C (second compound 0.1 µM, first compound 0.316 µM) was 6.09% and the viability, T/C (second compound 0.1 µM, first compound 1 µM) was 2.71%. It also gave a viability, T/C (second compound 0.1 µM, first compound 3.16 µM) of 2.42%, a viability, T/C (second compound 0.1 µM, first compound 10 µM) of 2.07% and a viability, T/C (second compound 0.316 µM, first compound 0.0316 µM) of 44.4%. It also gave a viability, T/C (second compound 0.316 µM, first compound 0.1 µM) of 27.7%, a viability, T/C (second compound 0.316 µM, first compound 0.316 µM) of 6.03% and a viability, T/C (second compound 0.316 µM, first compound 1 µM) of 2.23%. For the same compound, the viability, T/C (second compound 0.316 µM, first compound 3.16 µM) was 2.6%, the viability, T/C (second compound 0.316 µM, first compound 10 µM) was 2.2% and the viability, T/C (second compound 1 µM, first compound 0.0316 µM) was 41.1%. It also gave a viability, T/C (second compound 1 µM, first compound 0.1 µM) of 27.1%, a viability, T/C (second compound 1 µM, first compound 0.316 µM) of 5.68% and a viability, T/C (second compound 1 µM, first compound 1 µM) of 2.69%. For the same compound, the viability, T/C (second compound 1 µM, first compound 3.16 µM) was 3.18%, the viability, T/C (second compound 1 µM, first compound 10 µM) was 2.72% and the viability, T/C (second compound 3.16 µM, first compound 0.0316 µM) was 35.5%. For the same compound, the viability, T/C (second compound 3.16 µM, first compound 0.1 µM) was 21.8%, the viability, T/C (second compound 3.16 µM, first compound 0.316 µM) was 4.95% and the viability, T/C (second compound 3.16 µM, first compound 1 µM) was 1.97%. For the same compound, the viability, T/C (second compound 3.16 µM, first compound 3.16 µM) was 2.43%, the viability, T/C (second compound 3.16 µM, first compound 10 µM) was 2.46% and the viability, T/C (second compound 10 µM, first compound 0.0316 µM) was 18.2%. For the same compound, the viability, T/C (second compound 10 µM, first compound 0.1 µM) was 11.2%, the viability, T/C (second compound 10 µM, first compound 0.316 µM) was 1.78% and the viability, T/C (second compound 10 µM, first compound 1 µM) was 1.3%. The viability, T/C (second compound 10 µM, first compound 3.16 µM) was 1.25% and the viability, T/C (second compound 10 µM, first compound 10 µM) was 1.37%.
`COc1cc(Nc2ncc3c(n2)-c2ccc(Cl)cc2C(c2c(F)cccc2OC)=NC3)ccc1C(=O)O` was tested, and the viability, T/C (compound 0.00316 µM) was 44.2% and 45.2%, the viability, T/C (compound 0.01 µM) was 8.97% and 8.03% and the viability, T/C (compound 0.0316 µM) was 5.37% and 3.95%. The viability, T/C (compound 0.1 µM) was 4.19% and 5.61%, the viability, T/C (compound 0.316 µM) was 3.59% and 4.36% and the viability, T/C (compound 1 µM) was 3.38% and 3.29%. It also gave an IC50 (curve of compound) of under 3.16 nM.
`COc1cc(C2c3cc4c(cc3C(OC3OC5COC(C)OC5C(O)C3O)C3COC(=O)C23)OCO4)cc(OC)c1O` (configuration not stated) + NC1CC1c1ccc(-c2cccc(O)c2)cc1 showed an IC50 [1] of under 9.49 nM, an IC50 [2] of under 9.49 nM and an IC50 [3] of under 9.49 nM. For the same compound, the IC50 [4] was under 9.49 nM, the IC50 [5] was under 9.49 nM and the viability, T/C [6] was 43.9%. The viability, T/C [7] was 11.5%, the viability, T/C [8] was 4.34% and the viability, T/C [9] was 5.07%. The viability, T/C [10] was 5.27%, the viability, T/C [11] was 4.24% and the viability, T/C [12] was 38.7%. The viability, T/C [13] was 11.5%, the viability, T/C [14] was 4.54% and the viability, T/C [15] was 4.97%. For the same compound, the viability, T/C [16] was 4.77%, the viability, T/C [17] was 4.76% and the viability, T/C [18] was 35.6%. It also gave a viability, T/C [19] of 10.3%, a viability, T/C [20] of 6.12% and a viability, T/C [21] of 4.33%. For the same compound, the viability, T/C [22] was 3.45%, the viability, T/C [23] was 4.65% and the viability, T/C [24] was 29.2%. The viability, T/C [25] was 7.68%, the viability, T/C [26] was 5.57% and the viability, T/C [27] was 5.22%. It also gave a viability, T/C [28] of 5.76%, a viability, T/C [29] of 3.92% and a viability, T/C [30] of 24.8%. For the same compound, the viability, T/C [31] was 9.09%, the viability, T/C [32] was 5.19% and the viability, T/C [33] was 4.7%. The viability, T/C [34] was 5% and the viability, T/C [35] was 4.52%.
